We go through 15 compounds from patent publication US6599907B1, “Cystic fibrosis medicaments” (University of Wales College of Medicine, priority 1999, dated 2003).

One assay has as its system cyclic AMP. The assay can be described thus: Cyclic AMP content of acini (radioimmunoassay). In kind it is cell-based, rat. To be noted: for Cyclic AMP (pmol/mg protein), isoproterenol-stimulated: isoproterenol 10 μM alone or + PDE inhibitor (IBMX, Type III, Type IV 1 mM; Type V 0.2 mM), 5 min, n in parentheses.
Another assay deals with cyclic GMP. The assay can be described thus: Cyclic GMP content of acini (radioimmunoassay). It is filed as cell-based, rat. The following applies: for Cyclic GMP (fmol/mg protein), + Isoproterenol (10 μM) / Cyclic GMP (fmol/mg protein), No Isoproterenol: 5 min, IBMX, Types III, IV 1 mM, Type V 0.2 mM, mean±SEM (n).
Another assay concerns rat submandibular acini. The assay can be described thus: Mucin secretion from rat submandibular acini ([3H]-glucosamine labelled mucin release). To be noted: for Mucin Secretion (% basal), isoproterenol-stimulated: isoproterenol 10 μM alone or + PDE inhibitor (IBMX, Type III, Type IV 1 mM; Type V 0.2 mM), 30 min, n in parentheses; for Mucin secretion % basal: wild type mucin secretion.

The test system of assay [1] is CFTR. The assay can be described thus: Correction of CFTR antibody-inhibited β-adrenergic stimulation of mucin secretion in rat submandibular acini. The following applies: acini containing CFTR antibody; isoproterenol 10 μM + PDE inhibitor (Types III, IV 1 mM; Type V 0.2 mM); 30 min; compared with cpt-cyclic AMP 1 mM.
Assay [2] concerns CFTR. To be noted: acini containing CFTR antibody; 1 mM; 'has been shown'; cited from earlier work.
For another assay, the target named is PDE V (Homo sapiens, UniProt O76074). The assay can be described thus: PDE V inhibition. In kind it is biochemical.

Like-named read-outs stand apart in the source and are kept apart here. Marks after values point to notes of the source that are not given here.

Regarding `C[C@@H]1CC(=O)NN=C1c1ccc(-n2ccc(=O)cc2)cc1` (racemic) [Type III, (R,S)-4,5-dihydro-6-[4-(1,4-dihydro-4-oxopyridin-1-yl)phenyl]-5-methyl-3(2H)-pyridazinone, reference compound], the “Cyclic AMP (pmol/mg protein), isoproterenol-stimulated” value (shortened to “Cyclic AMP (pmol/mg protein)”) in the assay on cyclic AMP is given as “*1009.6 ± 91.5 (6) pmol/mg protein”. Further, in the assay with cyclic GMP, the “Cyclic GMP (fmol/mg protein), + Isoproterenol (10 μM)” value (“Cyclic GMP … (10 μM)” below) is 47.0 ± 1.8 (4) fmol/mg protein and the “Cyclic GMP (fmol/mg protein), No Isoproterenol” value (from here on “Cyclic GMP … No Isoproterenol”) is 39.3 ± 2.4 (3) fmol/mg protein. In the assay on rat submandibular acini, the “Mucin Secretion (% basal), isoproterenol-stimulated” value (from here on “Mucin Secretion (% basal)”) is 692 ± 238 (6) % basal. Moreover, the “Correction of the defective β-adrenergic secretory response (FIG. 1)” value (“Correction” below) in the assay with CFTR [1] is on record as “ineffective”.
Regarding `CC(C)Cn1c(=O)n(C)c(=O)c2[nH]cnc21` [IBMX, reference compound], the “Cyclic AMP (pmol/mg protein)” value in the assay on cyclic AMP is “*1252.9 ± 129.6 (6) pmol/mg protein”. Also, in the assay with cyclic GMP, the “Cyclic GMP … (10 μM)” value was “**55.6 ± 1.6 (8) fmol/mg protein” and the “Cyclic GMP … No Isoproterenol” value is reported as 48.1 ± 5.2 (8) fmol/mg protein. Also, in the assay with CFTR [2], the “Restored secretion, % of the secretion response seen in cells containing an equivalent amount of non-immune IgG” value is reported as “approx. 75%”. For the same compound, the “Mucin Secretion (% basal)” value in the assay with rat submandibular acini is 924 ± 290 (6) % basal.
As to `CC(C)NCC(O)c1ccc(O)c(O)c1` (stereo not drawn) [Isoproterenol, reference compound], in the assay on cyclic AMP, the “Cyclic AMP (pmol/mg protein)” value is listed as 373.0 ± 84.0 (6) pmol/mg protein. Also, in the assay on cyclic GMP, the “Cyclic GMP … (10 μM)” value is listed as 45.2 ± 1.6 (4) fmol/mg protein. Moreover, the “Mucin Secretion (% basal)” value with rat submandibular acini is given as 785 ± 212 (6) % basal.
`COc1ccc(C2CNC(=O)C2)cc1OC1CCCC1` (stereo not drawn) [Type IV, 4-(3-cyclopentyloxy-4-methoxyphenyl)-2-pyrrolidinone, reference compound]: the “Cyclic AMP (pmol/mg protein)” value in the assay on cyclic AMP is “**1908.7 ± 150.8 (6) pmol/mg protein”. Besides, in the assay with cyclic GMP, the “Cyclic GMP … (10 μM)” value is on record as 45.2 ± 2.0 (4) fmol/mg protein and the “Cyclic GMP … No Isoproterenol” value is recorded as 40.1 ± 1.5 (3) fmol/mg protein. Moreover, the “Mucin Secretion (% basal)” value with rat submandibular acini was 708 ± 220 (6) % basal. Besides, in the assay with CFTR [1], the “Correction” value was “as effective as cpt-cAMP”.
For the compound `CCCOc1ccccc1-c1nc2[nH]cnc2c(=O)[nH]1` [Type V, 1,7-dihydro-2-(2-propoxyphenyl)-6H-purin-6-one], the “Cyclic AMP (pmol/mg protein)” value is reported as 375.5 ± 95.8 (6) pmol/mg protein with cyclic AMP and “did not potentiate” with cyclic AMP (listed as Type V PDE inhibitor). Further, in the assay with cyclic GMP, the “Cyclic GMP … (10 μM)” value is listed as “**64.3 ± 3.6 (5) fmol/mg protein”. Besides, the “Cyclic GMP … No Isoproterenol” value in the assay on cyclic GMP is reported as “*47.3 ± 2.5 (5) fmol/mg protein”. Moreover, in the assay with rat submandibular acini, the “Mucin Secretion (% basal)” value was 755 ± 243 (6) % basal. Also, the “Correction” value in the assay with CFTR [1] is listed as “as effective as cpt-cAMP”.
Regarding `CCCOc1ccccc1-c1nc2[nH]cnc2c(=O)[nH]1` [a)], in the assay with cyclic AMP, the “cyclic AMP % basal” value turned out to be 100 % basal. In the assay on cyclic GMP, the “cyclic GMP % basal” value amounted to 140 % basal. For the same compound, the “Mucin secretion % basal” value in the assay with rat submandibular acini came to 120 % basal.
The term IC50 denotes the concentration that gives 50% inhibition. On to `CCCOc1ccccc1-c1nc2cnccc2c(=O)[nH]1` [b)], for which, in the assay with cyclic AMP, the “cyclic AMP % basal” value is given as 600* % basal. Besides, in the assay with cyclic GMP, the “cyclic GMP % basal” value turned out to be 130 % basal. On PDE V, this compound had an IC50 of 550 nM. The “Mucin secretion % basal” value in the assay with rat submandibular acini was 180* % basal.
As to `CNc1ncc2c(=O)[nH]c(-c3ccccc3OC)nc2n1` [c)], in the assay with cyclic AMP, the “cyclic AMP % basal” value is 250* % basal. The “cyclic GMP % basal” value with cyclic GMP is listed as 90 % basal. Also, the IC50 at PDE V (read-out: PDE V IC50) worked out at 22000 nM. The “Mucin secretion % basal” value with rat submandibular acini is listed as 160* % basal.
Taken in the same sequence, the figures for `COc1ccccc1-c1nc2cccnc2[nH]1` [d)] were 600* % basal, 90 % basal, 34000 nM and 200* % basal.
The matching figures for `CCCOc1ccccc1-c1nc2nc(N)ncc2c(=O)[nH]1` [e)]: 350* % basal, 130 % basal, 650 nM and 170* % basal.
Taken in the same sequence, the figures for `CCOc1ccccc1-c1nc2[nH]cnc2c(=O)[nH]1` [f)] were 100 % basal, 110 % basal, 4500 nM and 160* % basal.
For the compound `CCCCOc1ccccc1-c1nc2cccnc2[nH]1` [g)], in the assay with cyclic AMP, the “cyclic AMP % basal” value was 160* % basal. In addition, the “cyclic GMP % basal” value in the assay with cyclic GMP is recorded as 110 % basal. Also, on PDE V (read-out: PDE V IC50), the half-inhibitory concentration (IC50) was 750 nM. Further, in the assay on rat submandibular acini, the “Mucin secretion % basal” value is given as 200* % basal.
Taken in the same sequence, the figures for `O=c1[nH]c(-c2ccccc2O)nc2[nH]cnc12` [h)] were 100 % basal, 110 % basal, 48000 nM and 180* % basal.
The matching figures for `CCCOc1ccccc1-c1nc2nc(NCC(C)O)ncc2c(=O)[nH]1` (stereo not drawn) [i)]: 100 % basal, 90 % basal, 200 nM and 170* % basal.
Taken in the same sequence, the figures for `CCOc1ccccc1-c1nc2[nH]c(=O)[nH]c2c(=O)[nH]1` [j)] were 100 % basal, 140* % basal, 1300 nM and 160* % basal.
